Assay results as given in US7829665B2 (priority 2005, dated 2010).
Where two headings read alike, the source gives them in different places.

Tests used:
[1] = from C=CCCCCC[C@H](NC(=O)OC(C)(C)C)C(=O)N1CCC[C@H]1C(=O)N[C@]1(C(=O)OCC)C[C@H]1C=C; rcm bond; Hoveyda 1st generation catalyst; 1,2-dichloroethane; 10.0 mM; 50.0 °C; 16.0 h
[2] = target: T1, full-length NS3/NS4A-2 (HCV NS3 protease) (Hepatitis C virus genotype 1a, UniProt P27958); assay: NS3-NS4 protease assay / NS3 inhibition assay (RETS1 substrate, fluorescence kinetic read); type: biochemical
T1 construct: Recombinant E. coli or Baculovirus full-length NS3 was diluted to 3.33 μM with assay buffer; made in house; host or cells: E. coli or baculovirus (BV) expression system
Procedure, shortened: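 Ki values come from IC50 fits corrected via Ki=IC50/(1+[S]/Km), with Km 2.03 μM for E. coli and 1.74 μM for baculovirus full-length NS3. Enzyme (2 or 3 nM NS3, respectively, complexed with NS4A-2) sat with compound, top concentration 50 microM, for 10 min at room temperature. Cleavage of RETS1 (8 μM working solution) was then followed by fluorescence (335/495 nm) over 30 min.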

[3] = test system: HCV sub-genomic replicon in GS4.3 cells (HuH-7 hepatoma cells); assay: Quantitation by ELISA of Neomycin phosphotransferase II (NPTII) in the HCV sub-genomic replicon, GS4.3; type: cell-based, hepatitis C virus; conditions: Hepatitis C virus, Huh-7
Procedure, shortened: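 Replicon-bearing HuH-7 (GS4.3) cells were exposed to compounds for 72 h in G418-free medium, top final concentration 10 μM, 1% DMSO. Lysates went to an NPTII ELISA read at 450 nm. Signal was normalised to DMSO-treated wells and EC50 was derived by four-parameter curve fitting.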

[4] = recombinant E. coli or Baculovirus full-length NS3 with NS4A-2, read-out: NS3-NS4 IC50
[5] = GS4.3 cells, 72 h incubation, NPTII ELISA, read-out: Replicon EC50

T1 sequence (P27958 1027-1657): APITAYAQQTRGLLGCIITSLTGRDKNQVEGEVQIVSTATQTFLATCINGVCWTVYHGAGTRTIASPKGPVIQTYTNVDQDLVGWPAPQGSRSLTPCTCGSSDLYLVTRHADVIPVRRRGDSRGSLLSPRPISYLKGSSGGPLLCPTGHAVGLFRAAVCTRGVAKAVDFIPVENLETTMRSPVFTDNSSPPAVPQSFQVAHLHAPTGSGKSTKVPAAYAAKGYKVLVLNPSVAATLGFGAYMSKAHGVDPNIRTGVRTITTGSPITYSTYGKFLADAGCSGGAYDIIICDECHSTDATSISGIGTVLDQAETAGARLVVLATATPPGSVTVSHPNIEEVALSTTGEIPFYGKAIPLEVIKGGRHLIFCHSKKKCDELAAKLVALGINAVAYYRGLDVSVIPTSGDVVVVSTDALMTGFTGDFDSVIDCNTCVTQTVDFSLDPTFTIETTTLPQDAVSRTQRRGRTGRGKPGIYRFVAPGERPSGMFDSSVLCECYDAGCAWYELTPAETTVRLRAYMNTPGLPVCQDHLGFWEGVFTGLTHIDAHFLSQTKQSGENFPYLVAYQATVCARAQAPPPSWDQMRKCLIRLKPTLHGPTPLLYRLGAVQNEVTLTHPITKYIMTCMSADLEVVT

In the case of CCOC(=O)[C@@]12C[C@H]1C=CCCCCC[C@H](NC(=O)OC(C)(C)C)C(=O)N1CCC[C@H]1C(=O)N2, the ring closure, yield of all isomers [1] is reported as 76%.
CC(C)(C)CNC(=O)[C@@]12C[C@H]1/C=C\CCCCC[C@H](NC(=O)OC(C)(C)C)C(=O)N1C[C@H](OC(=O)N3Cc4cccc(F)c4C3)C[C@H]1C(=O)N2 [Compound 616] gave an IC50 [2, 4] of less than 1000 nM and an EC50 [3, 5] of less than 1000 nM.
Work on O=C(N[C@H]1CCCCC/C=C\[C@@H]2C[C@@]2(C(=O)NS(=O)(=O)c2ccccc2)NC(=O)[C@@H]2C[C@@H](OC(=O)N3CCc4ccccc4C3)CN2C1=O)OC1CCCC1 [Compound 117] yielded an IC50 [2, 4] of less than 100 nM and an EC50 [3, 5] of less than 100 nM.
Work on O=C1N[C@]2(C(=O)NS(=O)(=O)C3CC3)C[C@H]2/C=C\CCCCC[C@H](NCc2cc(F)cc(F)c2)C(=O)N2C[C@H](OC(=O)N3Cc4cccc(F)c4C3)C[C@@H]12 [Compound 903] yielded an IC50 [2, 4] of less than 100 nM and an EC50 [3, 5] of less than 100 nM.
With O=C(N[C@H]1CCCCC/C=C\[C@@H]2C[C@@]2(C(=O)NS(=O)(=O)c2cccs2)NC(=O)[C@@H]2C[C@@H](OC(=O)N3CCc4ccccc4C3)CN2C1=O)OC1CCCC1 [Compound 190] the IC50 [2, 4] was less than 100 nM and the EC50 [3, 5] was less than 100 nM.
With COC(=O)c1cccc(CNC(=O)[C@@]23C[C@H]2/C=C\CCCCC[C@H](NC(=O)OC(C)(C)C)C(=O)N2C[C@H](OC(=O)N4Cc5cccc(F)c5C4)C[C@H]2C(=O)N3)c1 [Compound 602] the IC50 [2, 4] was less than 1000 nM and the EC50 [3, 5] was less than 1000 nM.
CC(C)(C)OC(=O)N[C@H]1CCCCC/C=C\[C@@H]2C[C@@]2(C(=O)NCc2ccc(C(O)C(F)(F)F)cc2)NC(=O)[C@@H]2C[C@@H](OC(=O)N3Cc4cccc(F)c4C3)CN2C1=O (some centres unmarked) [Compound 606] showed an IC50 [2, 4] of less than 1000 nM and an EC50 [3, 5] of less than 1000 nM.
Compound O=C(N[C@H]1CCCCC/C=C\[C@@H]2C[C@@]2(C(=O)NCC2CC2)NC(=O)[C@@H]2C[C@@H](OC(=O)N3CCc4ccccc4C3)CN2C1=O)OC1CCCC1 [Compound 644] has an IC50 [2, 4] of less than 100 nM and an EC50 [3, 5] of less than 1000 nM.
CN(C)[C@H]1CCCCC/C=C\[C@@H]2C[C@@]2(C(=O)NS(=O)(=O)C2CC2)NC(=O)[C@@H]2C[C@@H](OC(=O)N3Cc4cccc(F)c4C3)CN2C1=O [Compound 908] showed an IC50 [2, 4] of less than 1000 nM and an EC50 [3, 5] of less than 10000 nM.
Compound O=C(N[C@H]1CCCCC/C=C\[C@@H]2C[C@@]2(C(=O)O)NC(=O)[C@@H]2C[C@@H](OC(=O)N3Cc4cccc(Cl)c4C3)CN2C1=O)OC1CCCC1 [Compound 138] has an IC50 [2, 4] of less than 100 nM and an EC50 [3, 5] of less than 1000 nM.
CC(C)(C)OC(=O)N[C@H]1CCCCC/C=C\[C@@H]2C[C@@]2(C(=O)NS(=O)(=O)NC2CC2)NC(=O)[C@@H]2C[C@@H](OC(=O)N3Cc4cccc(Cl)c4C3)CN2C1=O [Compound 213] showed an IC50 [2, 4] of less than 100 nM and an EC50 [3, 5] of less than 100 nM.
Compound O=C(N[C@H]1CCCCC/C=C\[C@@H]2C[C@@]2(C(=O)NS(=O)(=O)N2CCC(F)(F)C2)NC(=O)[C@@H]2C[C@@H](OC(=O)N3Cc4cccc(F)c4C3)CN2C1=O)OC1CCCC1 [Compound 225] has an IC50 [2, 4] of less than 100 nM and an EC50 [3, 5] of less than 100 nM.
With Cc1cc(CN[C@H]2CCCCC/C=C\[C@@H]3C[C@@]3(C(=O)NS(=O)(=O)C3CC3)NC(=O)[C@@H]3C[C@@H](OC(=O)N4Cc5cccc(F)c5C4)CN3C2=O)oc1C [Compound 915] the IC50 [2, 4] was less than 100 nM and the EC50 [3, 5] was less than 100 nM.
In the case of O=C1N[C@]2(C(=O)NS(=O)(=O)C3CC3)C[C@H]2/C=C\CCCCC[C@H](Nc2c(N3CCCCC3)c(=O)c2=O)C(=O)N2C[C@H](OC(=O)N3Cc4cccc(F)c4C3)C[C@@H]12 [Compound 198], the IC50 [2, 4] is reported as less than 100 nM and the EC50 [3, 5] is reported as less than 1000 nM.
CC(C)(C)OC(=O)N[C@H]1COCCC/C=C\[C@@H]2C[C@@]2(C(=O)NS(=O)(=O)C2CC2)NC(=O)[C@@H]2C[C@@H](OC(=O)N3Cc4cccc(F)c4C3)CN2C1=O [Compound 1020, (2R,6S,13aS,14aR,16aS,Z)-6-(tert-butoxycarbonylamino)-14a-(cyclopropylsulfonylcarbamoyl)-5,16-dioxo-2,3,5,6,7,9,10,11,13a,14,14a,15,16,16a-tetradecahydro-1H-cyclopropa(i)pyrrolo[1,2-e][1,5,8]oxadiazacyclopentadecin-2-yl 4-fluoroisoindoline-2-carboxylate] showed an IC50 [2] of less than 100 nM and an EC50 [3, 5] of less than 100 nM.
O=C(Cc1ccc(C(F)(F)F)cc1)N[C@H]1CCCCC/C=C\[C@@H]2C[C@@]2(C(=O)NS(=O)(=O)C2CC2)NC(=O)C2CCCN2C1=O (some centres unmarked) [Compound 2142] showed an IC50 [2, 4] of less than 10000 nM and an EC50 ([3]; Table 26, read-out: EC50) greater than 10000 nM.
Compound O=C1N[C@]2(C(=O)NCC3CC3)C[C@H]2/C=C\CCCCC[C@H](Nc2c(N3CCC3)c(=O)c2=O)C(=O)N2C[C@H](OC(=O)N3Cc4cccc(F)c4C3)C[C@@H]12 [Compound 647] has an IC50 [2, 4] of less than 100 nM and an EC50 [3, 5] of less than 10000 nM.
CC(C)(C)OC(=O)N[C@H]1CCCOC/C=C\[C@@H]2C[C@@]2(C(=O)NCC2CC2)NC(=O)[C@@H]2C[C@@H](OC(=O)N3Cc4cccc(F)c4C3)CN2C1=O [Compound 1019] showed an IC50 [2, 4] of less than 100 nM and an EC50 [3, 5] of less than 1000 nM.
Compound CNC(=O)[C@H](NC(=O)[C@@]12C[C@H]1/C=C\CCCCC[C@H](NC(=O)OC(C)(C)C)C(=O)N1C[C@H](OC(=O)N3Cc4cccc(F)c4C3)C[C@H]1C(=O)N2)c1ccc(F)cc1 [Compound 632] has an IC50 [2, 4] of less than 1000 nM and an EC50 [3, 5] of less than 10000 nM.
Compound CC(C)(C)OC(=O)N[C@H]1CCCCC/C=C\[C@@H]2C[C@@]2(C(=O)O)NC(=O)[C@@H]2C[C@@H](OC(=O)N3Cc4c(Cl)ccc(Cl)c4C3)CN2C1=O [Compound 144] has an IC50 [2, 4] of less than 100 nM and an EC50 [3, 5] of less than 10000 nM.
Compound CC(NC(=O)[C@@]12C[C@H]1/C=C\CCCCC[C@H](NC(=O)OC(C)(C)C)C(=O)N1C[C@H](OC(=O)N3Cc4cccc(F)c4C3)C[C@H]1C(=O)N2)c1ccncc1 (some centres unmarked) [Compound 618] has an IC50 [2, 4] of less than 100 nM and an EC50 [3, 5] of less than 10000 nM.
Work on CCCNC(=O)[C@@]12C[C@H]1/C=C\CCCCC[C@H](NCc1ccc(F)c(F)c1)C(=O)N1C[C@H](OC(=O)N3Cc4cccc(F)c4C3)C[C@H]1C(=O)N2 [Compound 625] yielded an IC50 [2, 4] of less than 10000 nM and an EC50 [3, 5] of less than 10000 nM.
For CC(C)(C)OC(=O)N[C@H]1CCCCC/C=C\[C@@H]2C[C@@]2(C(=O)NS(=O)(=O)C2CC2)NC(=O)[C@@H]2C[C@@H](OC(=O)N3CCc4c(F)ccc(Cl)c4C3)CN2C1=O [Compound 259], the IC50 [2, 4] was less than 100 nM and the EC50 [3, 5] was less than 100 nM.
In the case of CC(C)(C)OC(=O)N[C@H]1CCCCC/C=C\[C@@H]2C[C@@]2(C(=O)NS(=O)(=O)C2CC2)NC(=O)C2Cc3cc(Oc4cccc(Cl)c4)ccc3CN2C1=O (stereo partly drawn) [Compound 2007, tert-Butyl (1aS,9S,19aR,Z)-15-(3-chlorophenoxy)-19a-(cyclopropylsulfonylcarbamoyl)-10,18-dioxo-1a,4,5,6,7,8,9,10,12,17,17a,18,19,19a-tetradecahydro-1H-11,14-diaza-bicyclo[13.1.0]hexadeca-1(15), 2-dieno[11,12-b]isoquinolin-9-ylcarbamate], the IC50 [2, 4] is reported as less than 1000 nM and the EC50 [3, 5] is reported as less than 10000 nM.
